Test results published in patent publication US11560400B2, “Salts of diphosphate phosphoramidate of nucleosides as anticancer compounds” (NuCana plc, priority 2017, dated 2023).
Entries after “also recorded” stand apart in the source; their conditions may differ. Where two headings read alike, the source gives them in different places.

What was measured:
Format in all cases: cell-based
CCRF-CEM = assay: CellTiterGlo cell viability assay, CCRF-CEM; details: 72 h; for EC50: read-out: Ab EC50
In short: (§1)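 Compounds, serially diluted 3.16-fold in DMSO and pre-warmed in media to 37 °C, were added to cells in duplicate (final 198 μM–19.8 nM, 0.5% DMSO). Plates incubated 3 days in a CO2 incubator before CellTiterGlo readout.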

K562 = assay: CellTiterGlo cell viability assay, K562; details: for EC50: read-out: Ab EC50
In short: as §1

KG1a cells = assay: In vitro cytotoxicity, Annexin V/propidium iodide assay in KG1a cells; details: for change of potency (mean LD50) under hypoxic versus normoxic conditions: 5% oxygen
Method: The acute myeloid leukaemia (AML) KG1a cell line was maintained in RPMI medium (Invitrogen, Paisley, UK) supplemented with 100 units/mL penicillin, 100 μg/mL streptomycin and 20% foetal calf serum. Cells were subsequently aliquoted (10^5 cells/100 μL) into 96-well plates and were incubated at 37° C. in a humidified normoxic (20% oxygen) or hypoxic (1% or 5% oxygen) atmosphere for 48 h in the presence of clofarabine, or clofarabine diphosphate phosphoramidates of the invention (1×10^−10M-1×10^−6M). In addition, control cultures were carried out to which no drug was added. Cells were subsequently harvested by centrifugation and were analysed by flow cytometry using the Annexin V assay.
Cultured cells were harvested by centrifugation and then resuspended in 195 μL of calcium-rich buffer. Subsequently, 5 μL of Annexin V (Caltag Medsystems, Botolph Claydon, UK) was added to the cell suspension and cells were incubated in the dark for 10 mins prior to washing. Cells were finally resuspended in 190 μL of calcium-rich buffer together with 10 μL of propidium iodide. Apoptosis was assessed by dual-colour immunofluorescent flow cytometry as described previously. Subsequently LD50 values (the dose required to kill 50% of the cells in a culture) were calculated for each nucleoside analogue and diphosphate phosphoramidate.
The data obtained in these experiments were evaluated using one-way ANOVA. All data was confirmed as Gaussian or a Gaussian approximation using the omnibus K2 test. LD50 values were calculated from the non-linear regression and line of best-fit analysis of the sigmoidal dose-response curves. All statistical analyses were performed using Graphpad Prism 6.0 software (Graphpad Software Inc., San Diego, Calif.).
The in vitro drug sensitivity of KG1a cells was assessed using the Annexin V/propidium iodide assay.

For `Nc1nc(Cl)nc2c1ncn2[C@@H]1O[C@H](CO)[C@@H](O)[C@@H]1F` [Clofarabine, reference compound], the EC50 (CCRF-CEM; Table 4 classes) was less than 200 nM, the EC50 (CCRF-CEM; Homo sapiens, Table 3 classes) was less than 200 nM and the inhibition at 198 µM (CCRF-CEM; Homo sapiens, percentage inhibition at the highest concentration tested, read-out: Top Inh) was 98.7%. It also gave an inhibition at 198 µM (K562; Homo sapiens, K562, 72 h, percentage inhibition at the highest concentration tested, read-out: Top Inh) of 23%, an EC50 (K562; Homo sapiens, K562, 72 h, Table 3 classes) greater than 10 µM and an EC50 (K562; K 562, 72 h, Table 4 classes) greater than 10 µM. The “change of potency (mean LD50) under hypoxic versus normoxic conditions” value (KG1a cells; in words) was “significant loss in potency under hypoxic conditions; also recorded: significant reduction in potency”, the “change of potency (mean LD50) under hypoxic versus normoxic conditions” value (KG1a cells; in words, listed as clofarabine) was “significant increase in mean LD50 under hypoxic conditions; also recorded: significant reduction in potency” and the “Hypoxia Mean LD50” value (KG1a cells; 48 h, hypoxic (5% O2)) was 53.1 nM. The “Mean LD50 (Normoxia Mean LD50)” value (KG1a cells; 48 h, normoxic (20% oxygen)) was 16.9 nM, the “mean LD50 under hypoxic conditions” value (KG1a cells; hypoxic (5% oxygen)) was 53.1 nM and the “potency in KG1a cells (dose-response curves)” value (KG1a cells; in words) was “highest potency”. For the same molecule, the “mean LD50” value (KG1a cells; normoxic) was 16.9 nM and the “Ratio Normoxia/Hypoxia” value (KG1a cells; ratio of mean LD50 values) was 31.8.
